Measured values from US20260069539A1, “LIPIDOID COMPOUNDS AND RELATED COMPOSITIONS AND USES” (Poseida Therapeutics, Inc., priority 2023, published 2026).
Each block holds one molecule with its values, some of them ahead of it.

Legend:
liver cells [1] = assay: In vivo LNP delivery of fLuciferase mRNA, bioluminescent imaging (BLI) at 4 hr; design: species or system BALB/C mice; details: for Mean Luciferase Flux: 0.5 mg/kg fLuc mRNA i.v., 4 hr
Experimental: Adult female BALB/C mice (n=3/group) were intravenously administered 0.5 mg/kg of 5′-CleanCap—fLuciferase mRNA (TriLink Biotech) formulated with the LNP compositions shown in Table 6. One group of mice was treated with vehicle (PBS, Thermo Fisher Scientific, USA) as a negative control.
(§1) The location and extent of luciferase expression in treated and control mice were determined at 4 hr for mRNA and 48 hr for DNA by bioluminescent imaging (BLI) of anesthetized mice using an IVIS Lumina in vivo imaging system (Perkin Elmer) according to the manufacturer's instructions. Briefly, mice were anesthetized using isoflurane in oxygen, and placed supine on a heated stage. Mice were then administered D-luciferin (Perkin-Elmer #122799) IP, and BLI was performed.
as §1, with “hr” for “hr for mRNA and 48 hr for DNA”
as §1, with “hr” for “hr for mRNA and 48 hr for DNA”
The location and extent of luciferase expression in treated and control mice were determined at 4 hr by bioluminescent imaging (BLI) of anesthetized mice using an IVIS Lumina in vivo imaging system (Perkin Elmer) according to the manufacturer's instructions.
Briefly, mice were anesthetized using isoflurane in oxygen, and placed supine on a heated stage. Mice were then administered D-luciferin (Perkin-Elmer #122799) IP, and BLI was performed.
as §1, with “hr” for “hr for mRNA and 48 hr for DNA”

pcsk9 protein = assay: Serum Pcsk9 ELISA 7 days after LNP delivery of Cas-CLOVER mRNA and pcsk9 gRNAs (in vivo gene editing); design: species or system mouse; details: serum 7 days
Experimental: In two separate experiments, each group of adult female BALB/C mice (n=2/group) was intravenously co-administered mRNA encoding 5′-CleanCap-5MeC-Cas-CLOVER (SEQ ID NO: 5) and a pair of gRNAs (SEQ ID NOs: 6 and 7) targeted to the first exon of the mouse pcsk9 gene.
After seven days post-administration, blood samples were drawn from the subjects. Briefly, 500 μL of blood was collected after euthanasia via cardiac puncture using 2 ml syringes and 25G needles, transferred to microcentrifuge tubes, incubated at room temperature for 1 hour, and centrifuged at 1500 g for 15 minutes to separate the cellular fraction from serum. Serum fraction (200 μL) was transferred to a new tube and stored at −80C until further analysis.
Serum levels of the pcsk9 protein in the mice were measured 7 days after administration. Results are shown in Table 23 for the first experiment and Table 24 for the second experiment. Briefly, a mouse Pcsk9 ELISA kit (Biolegend) was used to determine Pcsk9 in each serum sample following manufacturer's instructions. All serum samples were assayed in triplicate and results were expressed as percentage in Pcsk9 levels compared with Pcsk9 levels of PBS-treated mice.

[2] = Body weight change / body weight loss 24 hours post-administration of LNP; type: in vivo, BALB/C mice
Experimental: In addition, the body weight of mice treated with LNP compositions of the present disclosure prepared as described in Example 77 was assessed prior to intravenous administration and 24 hours post-administration and the body weights at baseline and post-treatment were compared.
In addition, the body weight of mice treated with LNP compositions of the present disclosure was assessed prior to intravenous administration and 24 hours post-administration and the body weights at baseline and post-treatment were compared.
Body weight loss (BWL) measurements were taken at 24 hrs post administration and luciferase expression was measured by whole body luminescence imaging (BLI) at 48 hours post-administration.
(§2) Blood was drawn from control and treated mice 4 hrs post-administration for cytokine analysis, body weight loss (BWL) measurements were taken at 24 hrs post administration and luciferase expression was measured by whole body luminescence imaging (BLI) at 48 hours post-administration.

liver cells [3] = assay: In vivo LNP delivery of DNA encoding firefly luciferase, bioluminescent imaging (BLI) at 48 hr; design: species or system BALB/C mice; details: for Total Flux: Example 103, 0.5 mg/kg DNA intravenous, BLI at 48 hr; for Mean Luciferase Flux: DNA encoding firefly luciferase, 48 hr
Experimental: Adult BALB/C mice (n=3) were administered 0.5 mg/kg of DNA encoding firefly luciferase (Nature Technology Corp) formulated in a LNP composition listed in Table 4. One group of mice was treated with vehicle (PBS, Thermo Fisher Scientific, USA) as a negative control.
as §1, with “at” for “at 4 hr for mRNA and”, “DNA delivery” for “DNA”
as §1, with “at” for “at 4 hr for mRNA and”, “performed. […]” for “performed.”
Body weight loss (BWL) measurements were taken at 24 hrs post administration and luciferase expression was measured by whole body luminescence imaging (BLI) at 48 hours post-administration. […]
Luciferase expression was measured by whole body luminescence imaging (BLI) at 48 hours post-administration.

[4] = tested on: proinflammatory cytokines IL-6, INF-G, TNF-α, MCP-1, MIP-1a/MIP-1b; assay: Serum proinflammatory cytokine levels (ELISA) 4 hours after LNP administration; type: in vivo, BALB/C mice; details: 0.5 mg/kg fLuc mRNA i.v., serum at 4 hours
Experimental: The levels of five proinflammatory cytokines present in serum were evaluated at 4 hours after LNP administration for each of the tested concentrations. Briefly, serum samples were prepared as described for liver enzyme analysis and the serum concentration of each cytokine was determined using commercially available ELISA kits (e.g., R&D Systems Quantikine ELISA kits). The levels of the proinflammatory cytokines interleukin-6 (IL-6), interferon gamma (INF-G), tumor necrosis factor alpha (TNF-α), monocyte chemoattractant protein-1 (MCP-1), macrophage inflammatory protein-1 alpha (MIP-1a) in mice treated with LNPs of the present disclosure compared to vehicle treated mice at 4 hours are shown in Table 18.
(§3) The levels of five proinflammatory cytokines present in serum were evaluated at 4 hours after LNP administration as described in Example 81. The levels of the proinflammatory cytokines interleukin-6 (IL-6), interferon gamma (INF-G), tumor necrosis factor alpha (TNF-a), monocyte chemoattractant protein-1 (MCP-1), macrophage inflammatory protein-1 beta (MIP-1b) in mice treated with LNPs of the present disclosure are shown in Table 35.
as §3, with “38 and Table 39.” for “35.”
as §3, with “(TNF-α),” for “(TNF-a),”, “44.” for “35.”
as §2

[5] = Table 14 experiment, LNP with 43.17 % moles of the compound (Lipid:RNA 80)
[6] = Table 14 experiment, LNP with 50 % moles of the compound (Lipid:RNA 80)
[7] = DNA LNP with 43.17 % moles of the compound
[8] = DNA LNP with 50 % moles of the compound
[9] = LNP with 43.17 % moles of the compound (DOPC 11.96/Chol 43.17/PEG-DMG 1.7, Lipid:DNA 80)
[10] = LNP with 50 % moles of the compound (DOPC 10/Chol 38.5/PEG-DMG 1.5, Lipid:DNA 80)
[11] = LNP with 40.8 (40.75) % moles Compound No. 40
[12] = LNP with 50 % moles Compound No. 40

Compound: CCCCC[C@H]1CC[C@H](C(=O)OCC(COC(=O)CCCCCN(CCCO)CCCCCC(=O)COC(COC(=O)[C@H]2CC[C@H](CCCCC)CC2)COC(=O)[C@H]2CC[C@H](CCCCC)CC2)COC(=O)[C@H]2CC[C@H](CCCCC)CC2)CC1 [COMPOUND NO. 37]
Mean Luciferase Flux (liver cells [1]; [5]): 3.49E+11 p/s
Mean Luciferase Flux (liver cells [1]; [6]): 3.55E+11 p/s
% Pcsk9 compared to control (pcsk9 protein; DSPC:DOPC molar ratio 5%:5% in LNP, 0.5 mg/kg, lipid:RNA 80:1): 50.4%
% Pcsk9 compared to control (pcsk9 protein; DSPC:DOPC molar ratio 10%:0% in LNP, 0.5 mg/kg, lipid:RNA 80:1): 39.7%
% Pcsk9 compared to control (pcsk9 protein; LNP dose 0.5 mg/kg, COMPOUND NO. 37:DOPC:Cholesterol:DMG-PEG2000 50:10:38.5:1.5, lipid:RNA 80:1): 40.6%
% Pcsk9 compared to control (pcsk9 protein; LNP dose 1.0 mg/kg, COMPOUND NO. 37:DOPC:Cholesterol:DMG-PEG2000 50:10:38.5:1.5, lipid:RNA 80:1): 23.8%
% body weight change [2, 7]: −6.0%
% body weight change [2, 8]: −10.7%
Total Flux (liver cells [3]; LNP with 10% DOPC): 7.64E+07 p/s
Total Flux (liver cells [3]; LNP with 10% DSPC): 1.58E+08 p/s
Mean Luciferase Flux (liver cells [3]; [9]): 5.80E+07 p/s
Mean Luciferase Flux (liver cells [3]; [10]): 1.28E+08 p/s

Compound: CCCCC[C@H]1CC[C@H](C(=O)OCC(COC(=O)CCCCCN(CCO)CCCCCC(=O)COC(COC(=O)[C@H]2CC[C@H](CCCCC)CC2)COC(=O)[C@H]2CC[C@H](CCCCC)CC2)COC(=O)[C@H]2CC[C@H](CCCCC)CC2)CC1 [COMPOUND NO. 36]
RNA delivery potency (liver cells [1]; 0.5 mg/kg fLuciferase mRNA in LNP, BLI at 4 hr): RNA delivery potency increases with increasing number of cyclohexyl-substituted tails
Total Flux (liver cells [1]; Example 104, experiment of Table 64, 0.5 mg/kg fLuciferase mRNA intravenous, BLI at 4 hr): 3.25E+11 p/s
Mean Luciferase Flux (liver cells [1]; [5]): 1.31E+11 p/s
Mean Luciferase Flux (liver cells [1]; [6]): 1.19E+11 p/s
% body weight change [2, 7]: −4.9%
% body weight change [2, 8]: −6.7%
Total Flux (liver cells [3]; LNP with 10% DOPC): 7.52E+07 p/s
Total Flux (liver cells [3]; LNP with 10% DSPC): 1.23E+08 p/s
Mean Luciferase Flux (liver cells [3]; [9]): 7.99E+07 p/s
Mean Luciferase Flux (liver cells [3]; [10]): 1.82E+08 p/s

IL-6 cytokine fold changes in treated mice relative to untreated mice [4, 11]: 0.4 fold
INF-G cytokine fold changes in treated mice relative to untreated mice [4, 11]: 1.5 fold
MCP-1 cytokine fold changes in treated mice relative to untreated mice [4, 11]: 1.6 fold
MIP-1a cytokine fold changes in treated mice relative to untreated mice [4, 11]: 1.4 fold
TNF-a cytokine fold changes in treated mice relative to untreated mice [4, 11]: 1.0 fold
IL-6 cytokine fold changes in treated mice relative to untreated mice [4, 12]: 0.6 fold
INF-G cytokine fold changes in treated mice relative to untreated mice [4, 12]: 2.0 fold
MCP-1 cytokine fold changes in treated mice relative to untreated mice [4, 12]: 5.2 fold
MIP-1a cytokine fold changes in treated mice relative to untreated mice [4, 12]: 3.8 fold
TNF-a cytokine fold changes in treated mice relative to untreated mice [4, 12]: 1.1 fold
Compound: CCCCCC(=O)OCC1CCC(COC(=O)C(CCCN(CCO)CCCC(C(=O)OCC2CCC(COC(=O)CCCCC)CC2)C(=O)OCC2CCC(COC(=O)CCCCC)CC2)C(=O)OCC2CCC(COC(=O)CCCCC)CC2)CC1 (stereo not drawn) [COMPOUND NO. 40]
Mean Luciferase Flux (liver cells [1]; Table 15 experiment, LNP with 40.75 % moles of the compound (Lipid:RNA 80)): 2.20E+10 p/s
Mean Luciferase Flux (liver cells [1]; Table 15 experiment, LNP with 50 % moles of the compound (Lipid:RNA 80)): 1.02E+11 p/s
% body weight change ([2]; LNP with 40.75 % moles of the compound, fLuc mRNA 0.5 mg/kg i.v.): −5.5%
% body weight change ([2]; LNP with 50 % moles of the compound, fLuc mRNA 0.5 mg/kg i.v.): −2.0%
